Assay results taken from ChEMBL document CHEMBL4428041, “Identification and SAR Evaluation of Hemozoin-Inhibiting Benzamides Active against Plasmodium falciparum” (J Med Chem, 2016).
Active and inactive are the calls of the source. No cut-off for these calls is given here.

Legend:
Plasmodium falciparum [1] = assay: Antimalarial activity against CQ-sensitive Plasmodium falciparum D10 infected in human type O+ erythrocytes assessed as growth inhibition incubated for 48 hrs by LDH assay; type: functional, organism-based; settings: D10, 48 h
Hemozoin [2] = assay: Inhibition of beta-hematin in water/NP40/DMSO solution incubated for 5 to 6hrs by detergent-mediated pyridine-ferrichrome method
Plasmodium falciparum [3] = assay: Antimalarial activity against CQ-sensitive Plasmodium falciparum NF54 infected in human type O+ erythrocytes assessed as growth inhibition incubated for 48 hrs by LDH assay; type: functional, organism-based; settings: NF54, 48 h
Ferriprotoporphyrin IX [4] = assay: Binding affinity to Fe(3)PP9 solution assessed as ferriprotoporphyrin 9 complex formation by measuring compound concentration causing pink precipitate formation at <=5500 uM
Ferriprotoporphyrin IX [5] = assay: Binding affinity to Fe(3)PP9 solution assessed as ferriprotoporphyrin 9 complex formation by measuring pink precipitate formation at <=5500 uM
Hemozoin [6] = assay: Inhibition of hemozoin formation in CQ-sensitive Plasmodium falciparum D10 infected in human type O+ erythrocytes assessed as increase in free heme incubated for 32 hrs by cell fractionation assay; type: cell-based; settings: Erythrocyte
Hemozoin [7] = assay: Inhibition of hemozoin formation in CQ-sensitive Plasmodium falciparum D10 infected in human type O+ erythrocytes assessed as decrease in hemozoin formation incubated for 32 hrs by cell fractionation assay; type: cell-based; settings: Erythrocyte
Hemozoin [8] = assay: Inhibition of beta-hematin

| Structure (SMILES) | IC50 (Hemozoin [2]) [µM] | IC50 (Plasmodium falciparum [3]) [µM] | other results |
| --- | --- | --- | --- |
| O=C(Nc1ccncc1)c1ccccc1 | > 5500 | – | Activity (Ferriprotoporphyrin IX [4]): inactive; Activity (Ferriprotoporphyrin IX [5]): inactive |
| O=C(Nc1ccncc1)c1ccc([N+](=O)[O-])cc1[N+](=O)[O-] | > 5500 | – | Activity (Ferriprotoporphyrin IX [4]): inactive; Activity (Ferriprotoporphyrin IX [5]): inactive |
| O=C(Nc1ccccc1)c1cccc(C(=O)Nc2ccccc2)n1 | > 1000 | > 315 | – |
| O=C(Nc1ccncc1)c1ccc(Cl)c(Cl)c1 | – | – | Activity (Ferriprotoporphyrin IX [4]): 700 to 1300 µM |
| O=C(Nc1ccncc1)c1ccc(Cl)cc1 | – | – | Activity (Ferriprotoporphyrin IX [4]): 4500 to 5500 µM |
| Cc1cc(C(=O)Nc2ccccc2)cc(C(=O)Nc2ccccc2)c1 | > 1000 | 146 | – |
| O=C(Nc1cccnc1)c1cc([N+](=O)[O-])cc([N+](=O)[O-])c1 | 13 | 5 | IC50 (Plasmodium falciparum [1]): 2.3 µM; inhibition (Hemozoin [6]): Dose-dependent effect; inhibition (Hemozoin [7]): Dose-dependent effect |
| O=C(Nc1ccccc1)c1cccc(C(=O)Nc2ccccc2)c1 | > 1000 | > 314 | – |
| O=C(Nc1ccccc1)c1ccccc1[N+](=O)[O-] | > 1000 | > 41.3 | – |
| O=C(Nc1ccccc1)c1cc([N+](=O)[O-])cc([N+](=O)[O-])c1 | 22 | 5 | – |
| O=C(Nc1ccccc1)c1cc(C(=O)Nc2ccccc2)cc(C(=O)Nc2ccccc2)c1 | 21 | 81 | IC50 (Plasmodium falciparum [1]): > 42 µM |
| CCN(CC)Cc1cc(Nc2ccnc3cc(Cl)ccc23)ccc1O [AMODIAQUINE] | – | – | IC50 (Hemozoin [8]): 21 µM |

Further lines, with some results ahead:

| IC50 (Hemozoin [2]) [µM] | Structure (SMILES) | IC50 (Plasmodium falciparum [3]) [µM] | other results |
| --- | --- | --- | --- |
| 6.34 | N#Cc1cc(C(=O)Nc2ccncc2)cc(C(=O)Nc2ccncc2)c1 | 1.9 | IC50 (Plasmodium falciparum [1]): 2 µM |
| 7 | O=C(Nc1ccccc1)c1cc(C(=O)Nc2ccccc2)cc([N+](=O)[O-])c1 | 1.4 | – |
| > 1000 | COc1cc(C(=O)Nc2ccccc2)cc(C(=O)Nc2ccccc2)c1 | 37 | – |
| 260 | O=C(Nc1ccncc1)c1cccc(C(=O)Nc2ccncc2)n1 | > 315 | – |
| 507 | O=C(Nc1ccncc1)c1cccc(C(=O)Nc2ccncc2)c1 | 9 | – |
| > 5500 | COc1ccc(C(=O)Nc2ccncc2)cc1 | – | Activity (Ferriprotoporphyrin IX [4]): inactive; Activity (Ferriprotoporphyrin IX [5]): inactive |
| 22 | COc1cc(C(=O)Nc2ccncc2)cc(C(=O)Nc2ccncc2)c1 | 3 | – |
